Data published in PubChem BioAssay (NCI).
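How tested: cells in 96-well plates exposed to compound for 48 hours at five concentrations. TGI denotes the concentration required for complete inhibition of growth.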

Columns and labels:
Test in all cases: NCI-60 cell line screen, 48 h
IGROV1 ovarian = system: IGROV1 ovarian
BT-549 breast = system: BT-549 breast
LOX IMVI melanoma = system: LOX IMVI melanoma
HL-60(TB) leukemia = system: HL-60(TB) leukemia
CAKI-1 renal = system: CAKI-1 renal
SF-539 CNS = system: SF-539 CNS
MDA-N = system: MDA-N
UACC-62 melanoma = system: UACC-62 melanoma
SN12C renal = system: SN12C renal
SF-295 CNS = system: SF-295 CNS
COLO 205 colon = system: COLO 205 colon

| SMILES | TGI (IGROV1 ovarian) | TGI (BT-549 breast) | TGI (LOX IMVI melanoma) | TGI (HL-60(TB) leukemia) | TGI (CAKI-1 renal) | TGI (SF-539 CNS) | TGI (MDA-N) | TGI (UACC-62 melanoma) | TGI (SN12C renal) | TGI (SF-295 CNS) | TGI (COLO 205 colon) |
| --- | --- | --- | --- | --- | --- | --- | --- | --- | --- | --- | --- |
| CSc1n[n+](C)cc(N)c1N | > 100 µM | > 100 µM | > 100 µM | > 100 µM | > 100 µM | > 100 µM | > 100 µM | > 100 µM | > 100 µM | > 100 µM | > 100 µM |
| CC(=O)Nc1ccc(Nc2nc(=O)[nH]c(=O)[nH]2)cc1 | > 100 µM | > 100 µM | > 100 µM | > 100 µM | > 100 µM | > 100 µM | > 100 µM | > 100 µM | > 100 µM | > 100 µM | > 100 µM |
| COc1cccc(-c2cc(=O)c3cc(C)cnc3[nH]2)c1 | > 100 µM | > 100 µM | > 100 µM | 0.617 µM | > 100 µM | > 100 µM | 0.0213 µM | > 100 µM | > 33.9 µM | > 100 µM | 1.39 µM |
| C/C(=N/O)c1cccc(Nc2nc3ccccc3c3[nH]c4ccccc4c23)c1 | 13.3 µM | 34.7 µM | 6.06 µM | 8.23 µM | 6.89 µM | 23.9 µM | 7.56 µM | 4.65 µM | 13.4 µM | 5.58 µM | 7.1 µM |
| O=C(c1cccs1)N(C(=O)N1CCC(c2ccccc2)CC1)c1ccccc1 | > 100 µM | > 100 µM | > 100 µM | 91.2 µM | > 100 µM | > 100 µM | > 100 µM | > 100 µM | > 100 µM | > 100 µM | 72.2 µM |
| c1ccc2c(c1)SC1Sc3ccccc3[S+]21 (stereo not drawn) | 50.5 µM | 37.2 µM | 45.6 µM | 60.9 µM | 44.8 µM | 54.9 µM | 53.6 µM | 37.4 µM | 33.6 µM | > 100 µM | 30.1 µM |
| COc1ccc2nc3c([N+](=O)[O-])ccc4c3c(c2c1)NCCN4C | 4.52 µM | 11.4 µM | 4.71 µM | > 100 µM | 9.13 µM | 2.62 µM | 2.21 µM | 2.88 µM | 9.29 µM | 7.58 µM | 2.54 µM |
| COc1cc2[nH]c(-c3ccccc3)cc(=O)c2cc1OC | > 100 µM | > 100 µM | > 100 µM | 41 µM | > 100 µM | 60.5 µM | 6.44 µM | > 89 µM | > 100 µM | > 100 µM | > 33.3 µM |
